Each structure is given as a SMILES string.

For assay [1], the target named is T1, mCherry-^FIREtag / ^FIREmate-ECFP-Giantin (Halorhodospira halophila, UniProt P16113, A30V/C69G/D97P/F96I, form not given/G21E/G25R/K17N/M100R/M109L/Q41L/Q99S/S72T/T101G/V83A/Y94W/Y98T).
T1 construct: FIREmate-ECFP-Giantin(3131-3259) and mCherry-FIREtag in HeLa cells
T1 sequence (P16113 1-114 A30V/C69G/D97P/F96I/G21E/G25R/K17N/M100R/M109L/Q41L/Q99S/S72T/T101G/V83A/Y94W/Y98T): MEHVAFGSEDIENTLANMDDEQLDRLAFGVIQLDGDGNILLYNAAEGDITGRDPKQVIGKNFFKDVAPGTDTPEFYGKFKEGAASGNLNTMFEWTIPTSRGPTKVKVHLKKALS
In words: Recruitment of cytoplasmic protein to the Golgi apparatus, HeLa cells. The assay is classed as cell-based. As to conditions: 10 μM. The procedure:
FIGS. 6A-E illustrate the recruitment of cytoplasmic proteins to the Golgi apparatus with the proximity inducing system described herein. FIG. 6A is a representation of the experimental design wherein HeLa cells co-expressing mCherry-^FIREtag and ^FIREmate-ECFP-Giantin were treated with 10 µM of match (either HBR-2,5DM or HMBR), and imaged by time-lapse confocal microscopy. FIGS. 6B-C are graphs showing the temporal evolution of the FIRE signal detected upon addition at 0 min of HBR-2,5DM (match1-6B) or HMBR (match2-6C). Data represents the mean values±SD of 10 cells from n=3 independent experiments (6B, D), or of 12 cells from n=3 independent experiments (6C, E). FIGS. 6D-E are sets of representative confocal micrographs of cells before (0 min) and after (5 min) addition of HBR-2,5DM (match1-6D) or HMBR (match2-6E) (mCherry: ex/em 561/606-675 nm; FIRE: ex/em 488/508-570 nm; ECFP: ex/em 445/455-499 nm). […] Scale bars are 20 μm.
The confocal micrographs were acquired on a Zeiss LSM 980 Laser Scanning Microscope equipped with a plan apochromat 63x/1.4 NA oil immersion objective. ZEN software was used to collect the data. The images were analyzed using Icy (2.4.0.0) and Fiji (Image J). In short, to track fluorescence signal in a specific organelle, a ROI (region of interest) was determined by masking the signal in the ECFP (Enhanced Cyan Fluorescent Protein) channel with the plug-in HK-means with the following parameters: intensity class equals 100, minimum object size (pixels or px) equals 500, maximum object size (px) equals 1500-3000. The signal intensity of the ROI was tracked over time for each channel by using plug-in Active Contours. The background signal was subtracted. Data were processed using GraphPad Prism v9.3.0.
To further evaluate the scope of the proximity inducing system described herein and show its versatility, ^FIREmate was anchored at the membrane of various organelles or cellular structures so that ^FIREmate faced the cytosol. ^FIREmate was thus fused: • to the N-terminus of the transmembrane domain (amino acid residues at positions 3131-3259) of Giantin for location at the cis-medial rims of the Golgi apparatus (FIG. 6A), • to the N-terminus of the transmembrane domain (amino acid residues at positions 100-134) of the cytochrome b5 (Cb5) for location at the endoplasmic reticulum membrane (FIG. 7A), and • to the C-terminus of the Lyn11 inner membrane targeting sequence for location at the plasma membrane (FIG. 8A).
For each construct, an ECFP was inserted between ^FIREmate and the other protein domain/sequence to monitor the localization of the resulting fusion protein (blue fluorescence). Each fusion protein was co-expressed in mammalian cells (HeLa cells or HEK293 cells as indicated) together with mCherry-^FIREtag (red fluorescence). […]

For assay [2], the target named is T2, ^FIREmate and ^FIREtag (TOM20-ECFP-^FIREmate / mCherry-^FIREtag) (Halorhodospira halophila, UniProt P16113, A30V/C69G/D97P/F96I, form not given/G21E/G25R/K17N/M100R/M109L/Q41L/Q99S/S72T/T101G/V83A/Y94W/Y98T).
T2 construct: TOM20(1-34)-ECFP-FIREmate and mCherry-FIREtag in HeLa or U2OS cells
T2 sequence (P16113 1-114 A30V/C69G/D97P/F96I/G21E/G25R/K17N/M100R/M109L/Q41L/Q99S/S72T/T101G/V83A/Y94W/Y98T): T1 sequence (P16113 1-114 A30V/C69G/D97P/F96I/G21E/G25R/K17N/M100R/M109L/Q41L/Q99S/S72T/T101G/V83A/Y94W/Y98T)
In words: Stability of the ternary assembly over time at mitochondria, time-lapse confocal microscopy, U2OS cells. The assay is classed as cell-based. Particulars: 10 μM; 1 image every 2 minutes. The procedure: FIGS. 4A-D illustrate the recruitment over time of cytoplasmic proteins to mitochondria with the proximity inducing system described herein. (4A, C) HeLa cells co-expressing mCherry-^FIREtag and Tom20-ECFP-^FIREmate were treated with 10 μM HBR-2,5DM and imaged by time-lapse confocal microscopy at 1 image per 5 seconds. (4B, D) U2OS cells co-expressing mCherry-^FIREtag and Tom20-ECFP-^FIREmate were treated with 10 μM HBR-2,5DM and imaged by time-lapse confocal microscopy at 1 image every 2 minutes. FIG. 4A is a representative time-lapse of the HeLa cells from the addition of HBR-2,5DM at 0 sec (ex/em 488/508-570 nm). […] Scale bars are 20 μm. FIG. 4B is a representative time-lapse of the U2OS cells from the addition of HBR-2,5DM at 0 min (mCherry: ex/em 561/606-675 nm; FIRE: ex/em 488/508-570 nm; ECFP: ex/em 445/455-499 nm). […] Scale bars are 20 μm. FIG. 4C is a graph showing the temporal evolution of the FIRE signal detected in HeLa cells upon addition of HBR-2,5DM at 0 sec. […] FIG. 4D is a graph showing the temporal evolution of the FIRE signal detected in U2OS cells upon addition of HBR-2,5DM at 0 min. […]
The confocal micrographs were acquired on a Zeiss LSM 980 Laser Scanning Microscope equipped with a plan apochromat 63x/1.4 NA oil immersion objective. […] The images were analyzed using Icy (2.4.0.0) and Fiji (Image J). […]

For the compound `Cc1cc(/C=C2\SC(=S)NC2=O)c(C)cc1O` [HBR-2,5DM, (Z)-5-(4-hydroxy-2,5-dimethylbenzylidene)-2-thioxo-1,3-thiazolidin-4-one], in assay [1], the “FIRE signal at the Golgi apparatus” value is given as “simultaneous appearance of green fluorescence” and the “translocation of mCherry-^FIREtag to the Golgi apparatus” value was “rapid translocation of mCherry-^FIREtag to the organelle”. In assay [2], the “duration of fluorescence detected (stability of the ternary fluorescent assembly)” value was “more than 25 minutes”.
